Results as given in US7507739B2, “6-[(substituted)phenyl]triazolopyrimidines as anticancer agents” (Wyeth, priority 2003, dated 2009).
Where two headings read alike, the source gives them in different places.

Experiments:
KB-8-5 cells = test: MTS cytotoxicity test with KB-8-5 cells (moderate P-glycoprotein); type: cell-based, human; conditions: for IC50: Homo sapiens, read-out: IC50 KB 8.5; for Ratio 8.5/KB: IC50 on KB 8.5 cells/IC50 on KB cells
From the text: (§1) Human cancer cell lines, unless otherwise noted, are obtained from the American Type Culture Collection (Rockville, Md.). The following drug-sensitive parental cell lines, and their derived drug-resistant counterparts, are obtained from the originators as listed: (a) S1 (parental line from a subclone of human colon carcinoma line LS174T) and derived S1-M1-3.2 (herein called S1-M1) which expresses the MXR drug transporter protein, are provided by Dr. L. Greenberger, Wyeth Research (Rabindran, S. K., He, H., Singh, M., Brown, E., Collins, K. I., Annable, T., and Greenberger, L. M. Reversal of a novel multidrug resistance mechanism in human colon carcinoma cells by fumitremorgin C. Cancer Res., 58:5850-5858,1998); (b) parental HL-60 human promyelocytic leukemia line and derived HL-60/ADR, which expresses the MRP1 drug transporter protein, are provided by Dr. M. Center, University of Kansas (McGrath, T., and Center, M. S. Adriamycin resistance in HL60 cells in the absence of detectable P-glycoprotein. Biochem. Biophys. […] J. Biol. Chem., 261: 7762-7770,1986) via Dr. L. Greenberger, Wyeth Research.
(§2) The assay, which is sold in kit form by Promega (Madison, Wis.; CellTiter 96 AQueous Non-Radioactive Cell Proliferation Assay), is based on the conversion by viable cells, but not by dead cells, of the tetrazolium salt, MTS (3-(4,5-dimethylthiazol-2-yl)-5-(3-carboxymethoxyphenyl)-2-(4-sulphophenyl)-2H-tetrazolium, inner salt), into a water-soluble colored formazan which is detected by spectrophotometry. Compounds are tested at nine concentrations, in order to determine IC50 values. For the test procedure, cells are harvested by trypsinization (or, in the case of non-adherent cells, by simple resuspension), washed, counted and distributed to wells of 96-well flat-bottom microtiter plates at 1000 cells per well in 200 μL of medium. In addition, one row of wells on a separate plate received cells as above (“time 0” plate). All plates are incubated at 37° in humidified 5% CO2 in air for about 24 hr.
(§3) On day 2, compounds for test are diluted and added to wells. Compounds are dissolved in DMSO at 10 mg/mL. For each compound, nine serial 2-fold dilutions are prepared in DMSO. Ten μL of each dilution in DMSO is transferred to 100 μL of medium, mixed well, and then 5 μL of this dilution is transferred in quadruplicate to wells containing cells. […] Plates are returned to the incubator for three days. At the time of drug addition to the experimental plates, the MTS assay is run on the “time 0” plate. This produced the “time 0 MTS value” which is related to the number of viable cells per well at the time of drug addition.
(§4) After three days of culture with test compounds (day 5 overall), the MTS assay is done on all wells of the experimental plates. The absorbance values of the quadruplicate sample wells are averaged and divided by the average of the “time 0” values. […] The nine values for each compound are plotted against concentration, and the concentration that produced a relative color yield half way between the maximum and minimum is taken as the IC50 value.
(§5) The KB lines express different amounts of the P-glycoprotein (MDR1) membrane pump which produces resistance to the action of many cytotoxic compounds, including paclitaxel and vincristine. The parental KB line expresses no P-glycoprotein, KB-8-5 expresses moderate levels of the protein, and KB-V1 expresses very high levels.

KB-V1 cells = test: MTS cytotoxicity test with KB-V1 cells (very high P-glycoprotein); type: cell-based, human; conditions: for IC50: Homo sapiens, KB-V1 cells, MTS; for Ratio VI/KB: IC50 on KB VI cells/IC50 on KB cells; for recognition by P-glycoprotein: inferred from IC50 on KB-V1 compared to parental KB line
From the text: as §1, §2, §3, §4, §5

tubulin heterodimer = test: Competitive binding test, [3H]colchicine; design: species or system bovine; conditions: [3H]colchicine 50 nM
Procedure: (§6) Medium is RPMI-1640 with L-glutamine, supplemented with 10% heat-inactivated fetal calf serum, 100 units/ml penicillin, and 100 μg/ml streptomycin (Gibco, Grand Island, N.Y.). Microtubule-associated protein (MAP)-rich tubulin, containing about 70% tubulin and 30% MAPs (#ML113), and highly purified tubulin (>99% pure, #TL238), both from bovine brain, are obtained from Cytoskeleton, Inc., Denver, Colo. PEM buffer (80 mM piperazine-N,N′-bis[2-ethanesulfonic acid], pH 6.9, 1 mM ethylene glycol-bis(β-aminoethyl ether)-N,N,N′,N′-tetraacetic acid, 1 mM magnesium chloride) and guanosine 5′-triphosphate (GTP) are also obtained from Cytoskeleton. [3H]paclitaxel, specific activity 14.7 Ci/mmol, is purchased from Moravek Biochemicals (Brea, Calif.). [^3H]vinblastine, specific activity 9.60 Ci/mmol and MicroSpin G-50 columns are obtained from Amersham Biosciences (Piscataway, N.J.). […] Other reagents are obtained from Sigma (St. Louis, Mo.).
(§7) The binding of examples of this invention to highly purified tubulin is studied by competitive inhibition methods. […] To study possible competition at the taxane site, on the other hand, polymerized tubulin (microtubules) is used because paclitaxel binds preferentially to microtubules.
Highly purified tubulin is dissolved in PEM buffer without GTP and used at a final concentration of 1.0 to 1.3 mg/ml (10 to 13 μM). […] These solutions are incubated at 24° for 1 hr and then applied to MicroSpin G-50 columns which are centrifuged for 2 min at 3000 rpm in an Eppendorf 5415C microfuge. An aliquot of each column effluent (containing tubulin and bound radioligand) is mixed with scintillation fluid and counted in a liquid scintillation spectrometer. […] The ability of the competitor to inhibit the binding of the radioligand is expressed as a percentage of control binding in the absence of any competitor.

microtubules = test: Competitive binding test, [3H]paclitaxel; design: species or system bovine; conditions: [3H]paclitaxel 2.1 μM, competitor 20 μM (5 μM for unlabeled paclitaxel)
Procedure: as §6, §7
For competition with [^3H]paclitaxel, highly purified tubulin is dissolved in PEM buffer containing 0.75 M glutamate and 25 μM dideoxy-GTP; final protein concentration is 0.25 to 0.35 mg/mL (2.5 to 3.5 μM). These conditions foster the rapid formation of short, stable microtubule polymers (Hamel, E., del Campo, A. A., and Lin, C. M. Stability of tubulin polymers formed with dideoxyguanosine nucleotides in the presence and absence of microtubule-associated proteins. J. Biol. Chem., 259: 2501-2508, 1984). This solution is incubated for 30 min at 37° to allow microtubules to form. Then [^3H]paclitaxel (final concentration of 2.1 μM, 1.2 Ci/mmol) and competitor (final concentration of 20 μM, except 5 μM for unlabeled paclitaxel) are added to aliquots of the polymerized tubulin solution and incubation at 37° is continued for another 30 min. […] The reactions are then centrifuged at top speed in an Eppendorf 5415C microfuge for 20 min at room temperature in order to pellet the microtubule protein. Triplicate aliquots of each supernatant are mixed with scintillation fluid and counted in a liquid scintillation spectrometer. From the amount of radioactivity in the supernatants and the measured total starting radioactivity, the amount of [^3H]paclitaxel bound to pelleted microtubule protein is calculated. The ability of each competitor to inhibit radioligand binding to pelleted protein is expressed as a percent of controls without any competitor.

C[C@H](Nc1c(-c2c(F)cc(OCCCN(C)C)cc2F)c(Cl)nc2ncnn12)C(F)(F)F.Cl [Example 1a, 5-chloro-6-{4-[3-(dimethylamino)propoxy]-2,6-difluorophenyl}-N-[(1S)-2,2,2-trifluoro-1-methylethyl][1,2,4]triazolo[1,5-a]pyrimidin-7-amine hydrogen chloride Salt]
IC50 (KB-8-5 cells; KB-8-5 cells, MTS): 62 nM
Ratio 8.5/KB (KB-8-5 cells): 2.2
IC50 (KB-V1 cells): 103 nM
Ratio VI/KB (KB-V1 cells): 3.7
recognition by P-glycoprotein (KB-V1 cells): show recognition by P-glycoprotein
[3H]Colchicine binding, percent of control without competitor, Mean (tubulin heterodimer): 129%
[3H]Paclitaxel binding, percent of control without competitor, Mean (microtubules): 108%

CNCCCOc1cc(F)c(-c2c(Cl)nc3ncnn3c2N[C@@H](C)C(F)(F)F)c(F)c1.Cl [Example 2a, 5-Chloro-6-{2,6-difluoro-4-[3-(methylamino)propoxy]phenyl}-N-[(1S)-2,2,2-trifluoro-1-methylethyl][1,2,4]triazolo[1,5-a]pyrimidin-7-amine hydrogen chloride]
IC50 (KB-8-5 cells): 64 nM
IC50 (KB-V1 cells): 1120 nM
Ratio VI/KB (KB-V1 cells): 48
recognition by P-glycoprotein (KB-V1 cells): show recognition by P-glycoprotein
[3H]Colchicine binding, percent of control without competitor, Mean (tubulin heterodimer): 122%
[3H]Paclitaxel binding, percent of control without competitor, Mean (microtubules): 104%

CNCCCOc1cc(F)c(-c2c(Cl)nc3ncnn3c2NCC(F)(F)F)c(F)c1.Cl [Example 3a, 5-Chloro-6-{2,6-difluoro-4-[3-(methylamino)propoxy]phenyl}-N-(2,2,2-trifluoroethyl)[1,2,4]triazolo[1,5-a]pyrimidin-7-amine hydrogen chloride Salt]
IC50 (KB-8-5 cells; KB-8-5 cells, MTS): 69 nM
Ratio 8.5/KB (KB-8-5 cells): 3.8
IC50 (KB-V1 cells): 2150 nM
Ratio VI/KB (KB-V1 cells): 119
recognition by P-glycoprotein (KB-V1 cells): show recognition by P-glycoprotein
[3H]Colchicine binding, percent of control without competitor, Mean (tubulin heterodimer): 134%
[3H]Paclitaxel binding, percent of control without competitor, Mean (microtubules): 105%

CN(C)CCCOc1cc(F)c(-c2c(Cl)nc3ncnn3c2NCC(F)(F)F)c(F)c1.Cl [Example 4a, 5-Chloro-6-{4-[3-(dimethylamino)propoxy]-2,6-difluorophenyl}-N-(2,2,2-trifluoroethyl)[1,2,4]triazolo[1,5-a]pyrimidin-7-amine Hydrogen chloride Salt]
IC50 (KB-8-5 cells; KB-8-5 cells, MTS): 58 nM
IC50 (KB-V1 cells): 162 nM
Ratio VI/KB (KB-V1 cells): 7
recognition by P-glycoprotein (KB-V1 cells): show recognition by P-glycoprotein
[3H]Colchicine binding, percent of control without competitor, Mean (tubulin heterodimer): 134%
[3H]Paclitaxel binding, percent of control without competitor, Mean (microtubules): 104%

C[C@H](Nc1c(-c2c(F)cc(OCCCO)cc2F)c(Cl)nc2ncnn12)C(F)(F)F [Example 20, 3-[4-(5-Chloro-7-{[(1S)-2,2,2-trifluoro-1-methylethyl]amino}[1,2,4]triazolo[1,5-a]pyrimidin-6-yl)-3,5-difluorophenoxy]propan-1-ol]
IC50 (KB-8-5 cells; KB-8-5 cells, MTS): 66 nM
IC50 (KB-V1 cells): 73 nM
recognition by P-glycoprotein (KB-V1 cells): not recognized at all by P-glycoprotein
[3H]Colchicine binding, percent of control without competitor, Mean (tubulin heterodimer): 98%
[3H]Paclitaxel binding, percent of control without competitor, Mean (microtubules): 104%

C[C@H](Nc1c(-c2c(F)cc(OCCCN(C)C)cc2F)c(Br)nc2ncnn12)C(F)(F)F [Example 25, 5-Bromo-6-{4-[3-(dimethylamino)propoxy]-2,6-difluorophenyl}-N-[(1S)-2,2,2-trifluoro-1-methylethyl][1,2,4]triazolo[1,5-a]pyrimidin-7-amine]
IC50 (KB-8-5 cells; KB-8-5 cells, MTS): 67 nM
IC50 (KB-V1 cells): 165 nM
recognition by P-glycoprotein (KB-V1 cells): not recognized at all by P-glycoprotein
[3H]Colchicine binding, percent of control without competitor, Mean (tubulin heterodimer): 126%
[3H]Paclitaxel binding, percent of control without competitor, Mean (microtubules): 99%

OCCCOc1cc(F)c(-c2c(Cl)nc3ncnn3c2C2CCCCCC2)c(F)c1 [Example 30, 3-[4-(5-Chloro-7-cycloheptyl[1,2,4]triazolo[1,5-a]pyrimidin-6-yl)-3,5-difluorophenoxy]propan-1-ol]
IC50 (KB-8-5 cells; KB-8-5 cells, MTS): 127 nM
IC50 (KB-V1 cells): 97 nM
recognition by P-glycoprotein (KB-V1 cells): not recognized at all by P-glycoprotein
[3H]Colchicine binding, percent of control without competitor, Mean (tubulin heterodimer): 112%
[3H]Paclitaxel binding, percent of control without competitor, Mean (microtubules): 91%

CNCCCOc1cc(F)c(-c2c(Cl)nc3ncnn3c2C2CCCCCC2)c(F)c1.O=C(O)C(F)(F)F [Example 32, 3-[4-(5-Chloro-7-cycloheptyl[1,2,4]triazolo[1,5-a]pyrimidin-6-yl)-3,5-difluorophenoxy]-N-methylpropan-1-amine trifluoroacetic acid salt]
IC50 (KB-8-5 cells; KB-8-5 cells, MTS): 15 nM
IC50 (KB-V1 cells): 108 nM
Ratio VI/KB (KB-V1 cells): 9.9
recognition by P-glycoprotein (KB-V1 cells): show recognition by P-glycoprotein
[3H]Colchicine binding, percent of control without competitor, Mean (tubulin heterodimer): 94%
[3H]Paclitaxel binding, percent of control without competitor, Mean (microtubules): 93%

CC(=O)O[C@H]1C(=O)[C@@]2(C)[C@H]([C@H](OC(=O)c3ccccc3)[C@]3(O)C[C@H](OC(=O)[C@H](O)[C@@H](NC(=O)c4ccccc4)c4ccccc4)C(C)=C1C3(C)C)[C@]1(OC(C)=O)CO[C@@H]1C[C@@H]2O [Paclitaxel, reference compound]
IC50 (KB-8-5 cells; KB-8-5 cells, MTS): 56 nM
Ratio 8.5/KB (KB-8-5 cells): 19
IC50 (KB-V1 cells): > 1000 nM
Ratio VI/KB (KB-V1 cells): >345
Ratio VI/KB (KB-V1 cells; listed as paclitaxel): > 345
[3H]Colchicine binding, percent of control without competitor, Mean (tubulin heterodimer): 93%
[3H]Paclitaxel binding, percent of control without competitor, Mean (microtubules): 35%
